Active and inactive are the calls of the source. The rule behind the calls is not given here.
What was measured:
MCF7 [1] = test: Anticancer activity against Homo sapiens (human) MCF7 cells assessed as cell growth at 100 uM after 48 hr by SRB assay; assay type: functional, cell-based; conditions: MCF7, 48 h; for growth at 100 µM: read-out: Activity
HepG2 [2] = test: Anticancer activity against Homo sapiens (human) HepG2 cells assessed as cell growth at 100 uM after 48 hr by SRB assay; assay type: functional, cell-based; conditions: HepG2, 48 h; for growth at 100 µM: read-out: Activity
HCT-116 [3] = test: Anticancer activity against Homo sapiens (human) HCT116 cells assessed as cell growth at 100 uM after 48 hr by SRB assay; assay type: functional, cell-based; conditions: HCT-116, 48 h; for growth at 100 µM: read-out: Activity
MCF7 [4] = test: Anticancer activity against Homo sapiens (human) MCF7 cells assessed as growth inhibition after 48 hr by SRB assay; assay type: functional, cell-based; conditions: MCF7, 48 h
[5] = Cytotoxicity against lymphocytes in Homo sapiens (human) whole blood assessed as inhibition of cell viability after 24 to 96 hr by neutral red uptake assay; assay type: tissue-based; conditions: Lymphocyte
Hepatitis C virus [6] = test: Antiviral activity against Hepatitis C virus infected HepG2 cells assessed as disappearance of (+) and or (-) strands of viral RNA at 0.647 uM after 96 hr by qualitative RT-PCR analysis; assay type: functional, organism-based; conditions: Hepacivirus hominis
Hepatitis C virus [7] = test: Antiviral activity against Hepatitis C virus isolated from PBMC of infected patient assessed as disappearance of (+) and or (-) strands of viral RNA at 0.647 uM after 96 hr by qualitative RT-PCR analysis; assay type: functional, organism-based; conditions: Hepacivirus hominis
Blood = test: Toxicity in Homo sapiens (human) blood assessed as hemolysis
Hepatitis C virus [8] = test: Antiviral activity against Hepatitis C virus isolated from PBMC of infected patient assessed as disappearance of (+) and or (-) strands of viral RNA at 0.295 uM after 96 hr by qualitative RT-PCR analysis; assay type: functional, organism-based; conditions: Hepacivirus hominis
Hepatitis C virus [9] = test: Antiviral activity against Hepatitis C virus infected HepG2 cells assessed as disappearance of (+) and or (-) strands of viral RNA at 0.295 uM after 96 hr by qualitative RT-PCR analysis; assay type: functional, organism-based; conditions: Hepacivirus hominis
Hepatitis C virus [10] = test: Antiviral activity against Hepatitis C virus infected in HepG2 cells assessed as disappearance of (+) and or (-) strands of viral RNA at 0.394 uM after 96 hr by qualitative RT-PCR analysis; assay type: functional, organism-based; conditions: Hepacivirus hominis
Hepatitis C virus [11] = test: Antiviral activity against Hepatitis C virus isolated from PBMC of infected patient assessed as disappearance of (+) and or (-) strands of viral RNA at 0.394 uM after 96 hr by qualitative RT-PCR analysis; assay type: functional, organism-based; conditions: Hepacivirus hominis
Hepatitis C virus [12] = test: Antiviral activity against Hepatitis C virus infected HepG2 cells assessed as disappearance of (+) and or (-) strands of viral RNA at 0.078 uM after 96 hr by qualitative RT-PCR analysis; assay type: functional, organism-based; conditions: Hepacivirus hominis
Hepatitis C virus [13] = test: Antiviral activity against Hepatitis C virus isolated from PBMC of infected patient assessed as disappearance of (+) and or (-) strands of viral RNA at 0.078 uM after 96 hr by qualitative RT-PCR analysis; assay type: functional, organism-based; conditions: Hepacivirus hominis
Hepatitis C virus [14] = test: Antiviral activity against Hepatitis C virus infected HepG2 cells assessed as disappearance of (+) and or (-) strands of viral RNA at 0.611 uM after 96 hr by qualitative RT-PCR analysis; assay type: functional, organism-based; conditions: Hepacivirus hominis
Hepatitis C virus [15] = test: Antiviral activity against Hepatitis C virus isolated from PBMC of infected patient assessed as disappearance of (+) and or (-) strands of viral RNA at 0.611 uM after 96 hr by qualitative RT-PCR analysis; assay type: functional, organism-based; conditions: Hepacivirus hominis
Hepatitis C virus [16] = test: Antiviral activity against Hepatitis C virus infected HepG2 cells assessed as disappearance of (+) and or (-) strands of viral RNA at 0.30 uM after 96 hr by qualitative RT-PCR analysis; assay type: functional, organism-based; conditions: Hepacivirus hominis
Hepatitis C virus [17] = test: Antiviral activity against Hepatitis C virus isolated from PBMC of infected patient assessed as disappearance of (+) and or (-) strands of viral RNA at 0.30 uM after 96 hr by qualitative RT-PCR analysis; assay type: functional, organism-based; conditions: Hepacivirus hominis
Hepatitis C virus [18] = test: Antiviral activity against Hepatitis C virus isolated from PBMC of infected patient assessed as disappearance of (+) and or (-) strands of viral RNA at 0.108 uM after 96 hr by qualitative RT-PCR analysis; assay type: functional, organism-based; conditions: Hepacivirus hominis
Hepatitis C virus [19] = test: Antiviral activity against Hepatitis C virus infected HepG2 cells assessed as disappearance of (+) and or (-) strands of viral RNA at 0.108 uM after 96 hr by qualitative RT-PCR analysis; assay type: functional, organism-based; conditions: Hepacivirus hominis
HCT-116 [20] = test: Anticancer activity against Homo sapiens (human) HCT116 cells assessed as growth inhibition after 48 hr by SRB assay; assay type: functional, cell-based; conditions: HCT-116, 48 h
Hepatitis C virus [21] = test: Antiviral activity against Hepatitis C virus infected HepG2 cells assessed as disappearance of (+) and or (-) strands of viral RNA at 1.116 uM after 96 hr by qualitative RT-PCR analysis; assay type: functional, organism-based; conditions: Hepacivirus hominis
Hepatitis C virus [22] = test: Antiviral activity against Hepatitis C virus isolated from PBMC of infected patient assessed as disappearance of (+) and or (-) strands of viral RNA at 1.116 uM after 96 hr by qualitative RT-PCR analysis; assay type: functional, organism-based; conditions: Hepacivirus hominis
[23] = molecular target: T1, Arylamine N-acetyltransferase 1 (Homo sapiens, UniProt P18440); test: Inhibition of Homo sapiens (human) arylamine N-acetyltransferase 1
T1 sequence (P18440 whole entry): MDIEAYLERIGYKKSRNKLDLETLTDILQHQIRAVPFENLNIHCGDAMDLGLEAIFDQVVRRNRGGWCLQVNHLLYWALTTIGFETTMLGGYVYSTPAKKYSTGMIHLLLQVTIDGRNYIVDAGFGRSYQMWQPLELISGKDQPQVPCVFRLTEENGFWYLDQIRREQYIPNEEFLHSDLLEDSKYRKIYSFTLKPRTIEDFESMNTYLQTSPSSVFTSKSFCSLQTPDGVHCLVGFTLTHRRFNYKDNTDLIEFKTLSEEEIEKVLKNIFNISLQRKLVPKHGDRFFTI

Hepatitis C virus [24] = test: Antiviral activity against Hepatitis C virus isolated from PBMC of infected patient assessed as disappearance of (+) and or (-) strands of viral RNA at 0.077 uM after 96 hr by qualitative RT-PCR analysis; assay type: functional, organism-based; conditions: Hepacivirus hominis
Hepatitis C virus [25] = test: Antiviral activity against Hepatitis C virus infected HepG2 cells assessed as disappearance of (+) and or (-) strands of viral RNA at 0.077 uM after 96 hr by qualitative RT-PCR analysis; assay type: functional, organism-based; conditions: Hepacivirus hominis
HepG2 [26] = test: Anticancer activity against Homo sapiens (human) HepG2 cells assessed as growth inhibition after 48 hr by SRB assay; assay type: functional, cell-based; conditions: HepG2, 48 h
Hepatitis C virus [27] = test: Antiviral activity against Hepatitis C virus infected in HepG2 cells assessed as disappearance of (+) and or (-) strands of viral RNA at 0.312 uM after 96 hr by qualitative RT-PCR analysis; assay type: functional, organism-based; conditions: Hepacivirus hominis
Hepatitis C virus [28] = test: Antiviral activity against Hepatitis C virus isolated from PBMC of infected patient assessed as disappearance of (+) and or (-) strands of viral RNA at 0.312 uM after 96 hr by qualitative RT-PCR analysis; assay type: functional, organism-based; conditions: Hepacivirus hominis

## COc1ccc(/C=C2\SC(=S)N(Cc3nc4ccccc4[nH]3)C2=O)c(OC)c1
MCF7 [1]
  growth at 100 µM: 0.34%
HepG2 [2]
  growth at 100 µM: 17.8%
HCT-116 [3]
  growth at 100 µM: 19.2%

## O=C1/C(=C/c2ccccc2Cl)SC(=S)N1Cc1nc2ccccc2[nH]1
MCF7 [4]
  IC50: 39.6 µM
MCF7 [1]
  growth at 100 µM: -4.32%
HepG2 [2]
  growth at 100 µM: 9.07%
HCT-116 [3]
  growth at 100 µM: 27.6%

## O=C1/C(=C\c2ccc(Cl)cc2)S/C(=N\c2ccccc2)N1Cc1nc2ccccc2[nH]1
[5]
  IC50: 32.4 µM
Hepatitis C virus [6]
  Activity: inactive
Hepatitis C virus [7]
  Activity: inactive
Blood
  Activity: Non-toxic

## CN(C)c1ccc(/C=C2\SC(=S)N(Cc3nc4ccccc4[nH]3)C2=O)cc1
[5]
  IC50: 14.8 µM
Hepatitis C virus [8]
  Activity: inactive
Hepatitis C virus [9]
  Activity: inactive
Blood
  Activity: Non-toxic

## O=C1/C(=C\c2ccc([N+](=O)[O-])cc2)S/C(=N\c2ccccc2)N1Cc1nc2ccccc2[nH]1
MCF7 [1]
  growth at 100 µM: -0.79%
HepG2 [2]
  growth at 100 µM: 24%
HCT-116 [3]
  growth at 100 µM: 18%

## O=C1/C(=C/C=C/c2ccccc2)SC(=S)N1Cc1nc2ccccc2[nH]1
MCF7 [4]
  IC50: 37.4 µM
MCF7 [1]
  growth at 100 µM: -3.93%
HepG2 [2]
  growth at 100 µM: 14.2%
HCT-116 [3]
  growth at 100 µM: 21.2%

## Cc1ccc(/N=C2\S/C(=C\c3ccc(Cl)cc3)C(=O)N2Cc2nc3ccccc3[nH]2)cc1
[5]
  IC50: 19.7 µM
Hepatitis C virus [10]
  Activity: inactive
Blood
  Activity: Non-toxic
Hepatitis C virus [11]
  Activity: inactive

## O=C1/C(=C/c2ccc([N+](=O)[O-])cc2)SC(=S)N1Cc1nc2ccccc2[nH]1
MCF7 [4]
  IC50: 39.4 µM
[5]
  IC50: 39.5 µM
Hepatitis C virus [12]
  Activity: inactive
Hepatitis C virus [13]
  Activity: inactive
Blood
  Activity: Non-toxic

## O=C1/C(=C/c2ccccc2)SC(=S)N1Cc1nc2ccccc2[nH]1
MCF7 [4]
  IC50: 35.1 µM

## O=C1/C(=N\Nc2ccc(S(=O)(=O)Nc3ncccn3)cc2)SC(=S)N1Cc1nc2ccccc2[nH]1
[5]
  IC50: 30.6 µM
Hepatitis C virus [14]
  Activity: inactive
Hepatitis C virus [15]
  Activity: inactive
Blood
  Activity: Non-toxic

## CC(=O)NS(=O)(=O)c1ccc(N/N=C2/SC(=S)N(Cc3nc4ccccc4[nH]3)C2=O)cc1
[5]
  IC50: 15.3 µM
Blood
  Activity: Non-toxic
Hepatitis C virus [16]
  Activity: inactive
Hepatitis C virus [17]
  Activity: inactive

## COc1ccc(/C=C2\SC(=S)N(Cc3nc4ccccc4[nH]3)C2=O)cc1
MCF7 [4]
  IC50: 46.7 µM
Hepatitis C virus [18]
  Activity: inactive
[5]
  IC50: 54.3 µM
MCF7 [1]
  growth at 100 µM: -5.75%
Hepatitis C virus [19]
  Activity: inactive
HepG2 [2]
  growth at 100 µM: 11.8%
Blood
  Activity: Non-toxic
HCT-116 [3]
  growth at 100 µM: 16.2%

## O=C1/C(=C\c2ccccc2)S/C(=N\c2ccccc2)N1Cc1nc2ccccc2[nH]1
MCF7 [1]
  growth at 100 µM: -0.69%
HCT-116 [20]
  IC50: 7.3 µM
HepG2 [2]
  growth at 100 µM: 24.4%
HCT-116 [3]
  growth at 100 µM: 7%

## COc1ccc(/C=C2/S/C(=N\c3ccccc3)N(Cc3nc4ccccc4[nH]3)C2=O)c(OC)c1
MCF7 [1]
  growth at 100 µM: -1.19%
HepG2 [2]
  growth at 100 µM: 18.4%
HCT-116 [3]
  growth at 100 µM: 15.5%

## O=C1/C(=C\c2ccccc2Cl)S/C(=N\c2ccccc2)N1Cc1nc2ccccc2[nH]1
MCF7 [4]
  IC50: 34.8 µM
MCF7 [1]
  growth at 100 µM: -1.74%
HepG2 [2]
  growth at 100 µM: 18.9%
HCT-116 [3]
  growth at 100 µM: 13.8%

## O=C1Nc2ccccc2/C1=C1/SC(=S)N(Cc2nc3ccccc3[nH]2)C1=O
MCF7 [4]
  IC50: 35.4 µM
[5]
  IC50: 55.8 µM
Hepatitis C virus [21]
  Activity: inactive
Hepatitis C virus [22]
  Activity: inactive
Blood
  Activity: Non-toxic

## O=C1NC(=O)/C(=C/c2ccccc2O)S1
[23]
  IC50: 1100 nM

## COc1ccc(OC)c(/C=C2\SC(=S)N(Cc3nc4ccccc4[nH]3)C2=O)c1
MCF7 [4]
  IC50: 27.7 µM
[5]
  IC50: 39 µM
MCF7 [1]
  growth at 100 µM: -2.27%
Hepatitis C virus [24]
  Activity: inactive
HepG2 [2]
  growth at 100 µM: 18.6%
Hepatitis C virus [25]
  Activity: inactive
Blood
  Activity: Non-toxic
HCT-116 [3]
  growth at 100 µM: 20.8%

## O=C1Nc2ccccc2/C1=C1/S/C(=N\c2ccccc2)N(Cc2nc3ccccc3[nH]2)C1=O
[5]
  IC50: 15.6 µM
HepG2 [26]
  IC50: 5.91 µM
Hepatitis C virus [27]
  Activity: inactive
Hepatitis C virus [28]
  Activity: inactive
MCF7 [1]
  IC50: 7.07 µM
HepG2 [2]
  IC50: 6.8 µM
Blood
  Activity: Non-toxic
HCT-116 [3]
  IC50: 16.2 µM
